Here are results for one compound from ChEMBL document CHEMBL4699526, “Flavonoids with Inhibitory Effects on NLRP3 Inflammasome Activation from Millettia velutina” (J Nat Prod, 2020).

One data set concerns THP-1. The data set is described as follows: Cytotoxicity against LPS-primed human PMA-differentiated THP-1 cells 2.5 to 5 uM by CytoTox 96 Non-Radioactive assay. The class given is cell-based. The conditions noted are these: dose 2.5-5 µM.
Data set [1] in a line: In vivo inhibition of NLRP3 inflammasome activation in C57BL/6 mouse assessed as survival rate at 50 mg/kg, ip pretreated for 1 hr followed by LPS-treatment and measured every 12 hrs for 48 hrs relative to control. The class given is functional. The conditions noted are these: C57BL/6, ip, time 49 hrs.
Data set [2] is described as follows: In vivo inhibition of NLRP3 inflammasome activation in C57BL/6 mouse assessed as mortality rate at 50 mg/kg, ip pretreated for 1 hr followed by LPS-treatment and measured every 12 hrs for 48 hrs (reference value: 100%). The class given is functional. The conditions noted are these: C57BL/6, ip, 61 h.

What is called mortality is the percentage killed.

For the compound `COc1c(/C=C/C(=O)c2ccccc2)cc(OC)c2occc12`, in the data set on THP-1, the Activity entry is “Non-Toxic”. The survival at 50 mg/kg in data set [1] is 100%. The mortality at 50 mg/kg in data set [2] was 24%.
